Patent US10709725B2, “Gemcitabine ProTide hypoxia-activated prodrug and application thereof” (JIANGSU QIANZHIKANG BIOLOGICAL MEDICINE SCIENCE AND …, priority 2016, dated 2020)
Converted amounts (≈) assume the structure as drawn. “Also recorded” adds a separate entry of the source. Where two headings read alike, the source gives them in different places.

Experiments:
[1] = tested on: Human liver cancer HepG2 cell; test: In-vitro inhibition of tumor cell proliferation (3H-TdR, 72 h), normal oxygen and hypoxic; assay type: cell-based; details: HepG2, 72 h
Experimental: (§1) Take tumor cells in the logarithmic growth phase, add 0.25% pancreatin for digestion for 3 min, use RPMI-1640 containing 10% calf serum for suspension culture of the cells, count the number, adjust cell concentration to 1×10^5 cells/mL, inoculate to a Top-count dedicated 96-well cell culture plate at 100 μL/well, and incubate at 37° C. and 5% CO2 for 24 h; divide the cells into experimental groups and control groups, and add a target compound solution (0.001 μg/mL, 0.01 μg/mL, 0.1 μg/mL, 1 μg/mL, 10 μg/mL) to the experimental groups, wherein each concentration corresponded to four wells, and the volume of each well was made up to 200 μL; after adding samples, continue to culture for 72 h for each group (for hypoxic groups, continue to culture for 72 h at 5% CO2, 95% N2), add ^3H-TdR 3×10^5Bq to each group before culture ended, and measure the CPM (count per minute) value of each well with Top-count; and calculate the median inhibition concentration (IC50) of drugs in each experimental group on cell proliferation.

[2] = tested on: Human lung adenocarcinoma cell A549; test: as above; assay type: cell-based; details: A549, 72 h
Experimental: as §1

[3] = tested on: Human pancreatic adenocarcinoma cell BxPC-3 cell; test: as above; assay type: cell-based; details: Homo sapiens
[4] = tested on: subcutaneous transplantation tumor of human BxPC-3; test: Growth inhibition of subcutaneous transplantation tumor of human BxPC-3 in nude mice, with animal weight; assay type: in vivo; details: high-dose group, 4 times of the effective dose (0.4 mmol/kg); FIG. 3
Experimental: Take BxPC-3 human pancreatic cancer cells in the logarithmic growth phase, inoculate subcutaneously on the back of nude mice at a concentration of 5×10^6 cells·0.2 mL^−1·mouse^−1, three weeks later, after the long diameters of the transplanted tumors in nude mice were all ≥5 mm, calculate the similar volume of tumor bodies based on the long diameter and short diameter of the transplanted tumors. Nude mice were divided into 5 groups by a random block design and allocation method according to the tumor volume.
Administration scheme: 50 model animals were randomly divided into a negative control group, a low-dose group (compound 001, 0.1 mmol/kg), a high-dose group (compound 001, 0.4 mmol/kg), a gemcitabine hydrochloride group (0.2 mmol/kg), and a combined administration group (compound 001, 0.1 mmol/kg+ gemcitabine hydrochloride, 0.1 mmol/kg), intraperitoneally injected (twice per week) for 3 weeks, and killed one week after drug withdrawal. At the same time, animal weight was measured and the eye condition of the animal was observed.

[5] = hypoxic (5% CO2, 95% N2), read-out: Median inhibition concentration IC50 hypoxic (nitrogen)
[6] = normal oxygen (air), read-out: Median inhibition concentration IC50 normal oxygen (air)
[7] = BxPC-3, 72 h, hypoxic (5% CO2, 95% N2), read-out: Median inhibition concentration IC50 hypoxic (nitrogen)
[8] = BxPC-3, 72 h, normal oxygen (air), read-out: Median inhibition concentration IC50 normal oxygen (air)
[9] = BXPC-3, 72 h, hypoxic (5% CO2, 95% N2), read-out: Median inhibition concentration IC50 hypoxic (nitrogen)
[10] = BXPC-3, 72 h, normal oxygen (air), read-out: Median inhibition concentration IC50 normal oxygen (air)

Compound | IC50 [1, 5] | IC50 [1, 6] | IC50 [2, 5] | IC50 [2, 6] | IC50 [3, 7] | IC50 [3, 8] | Animal weight [4] | IC50 [3, 9] | IC50 [3, 10]
CC(OC(=O)[C@H](C)NP(=O)(OC[C@H]1O[C@@H](n2ccc(N)nc2=O)C(F)(F)C1O)Oc1ccccc1)c1ccc([N+](=O)[O-])cc1 (stereo partly drawn) [Compound 001] | 0.3 µg/mL (≈ 0.469 µM) | > 10 µg/mL | 0.05 µg/mL (≈ 0.0782 µM) | 1 µg/mL (≈ 1.56 µM) | 0.2 µg/mL (≈ 0.313 µM) | > 10 µg/mL | no significant difference in animal weight; also recorded: not significantly different from that of the low-dose group and a positive control drug gemcitabine group |  | 
C[C@H](NP(=O)(OC[C@H]1O[C@@H](n2ccc(N)nc2=O)C(F)(F)C1O)Oc1ccccc1)C(=O)OC(C)(C)c1ccc([N+](=O)[O-])cc1 (stereo partly drawn) [Compound 002] | 0.2 µg/mL (≈ 0.306 µM) | > 10 µg/mL | 0.1 µg/mL (≈ 0.153 µM) | 2 µg/mL (≈ 3.06 µM) | 0.4 µg/mL (≈ 0.612 µM) | > 10 µg/mL |  |  | 
CC(OC(=O)[C@H](C)NP(=O)(OC[C@H]1O[C@@H](n2ccc(N)nc2=O)C(F)(F)C1O)Oc1ccccc1)c1cnc([N+](=O)[O-])n1C (stereo partly drawn) [Compound 003] | 0.4 µg/mL (≈ 0.622 µM) | > 10 µg/mL |  |  |  |  |  |  | 
CC(OC(=O)[C@H](C)NP(=O)(OC[C@H]1O[C@@H](n2cnc(N)nc2=O)C(F)(F)C1O)Oc1ccccc1)c1ccc([N+](=O)[O-])o1 (stereo partly drawn) [Compound 004] |  |  |  |  | 0.4 µg/mL (≈ 0.634 µM) | > 10 µg/mL |  |  | 
CC(OC(=O)[C@H](C)NP(=O)(OC[C@H]1O[C@@H](n2ccc(N)nc2=O)C(F)(F)C1O)Oc1ccccc1)c1ccc([N+](=O)[O-])s1 (stereo partly drawn) [Compound 005] |  |  | 0.1 µg/mL (≈ 0.155 µM) | 2 µg/mL (≈ 3.1 µM) |  |  |  |  | 
CC(OP(=O)(N[C@@H](C)C(=O)OCc1ccccc1)OC[C@H]1O[C@@H](n2ccc(N)nc2=O)C(F)(F)C1O)c1ccc([N+](=O)[O-])cc1 (stereo partly drawn) [Compound 006] |  |  | 0.2 µg/mL (≈ 0.306 µM) | 2 µg/mL (≈ 3.06 µM) |  |  |  | 0.4 µg/mL (≈ 0.612 µM) | > 10 µg/mL
COC(=O)[C@H](C)NP(=O)(OC[C@H]1O[C@@H](n2cnc(N)nc2=O)C(F)(F)C1O)OC(C)c1ccc([N+](=O)[O-])cc1 (stereo partly drawn) [Compound 007] | 0.5 µg/mL (≈ 0.864 µM) | > 10 µg/mL |  |  |  |  |  | 0.4 µg/mL (≈ 0.692 µM) | > 10 µg/mL
CCOC(=O)[C@H](C)NP(=O)(OC[C@H]1O[C@@H](n2cnc(N)nc2=O)C(F)(F)C1O)OC(C)c1ccc([N+](=O)[O-])cc1 (stereo partly drawn) [Compound 008] | 0.3 µg/mL (≈ 0.506 µM) | > 10 µg/mL |  |  |  |  |  | 0.4 µg/mL (≈ 0.675 µM) | > 10 µg/mL
CC(C)OC(=O)[C@H](C)NP(=O)(OC[C@H]1O[C@@H](n2cnc(N)nc2=O)C(F)(F)C1O)OC(C)c1ccc([N+](=O)[O-])cc1 (stereo partly drawn) [Compound 009] |  |  | 0.2 µg/mL (≈ 0.33 µM) | 2 µg/mL (≈ 3.3 µM) |  |  |  | 0.4 µg/mL (≈ 0.66 µM) | > 10 µg/mL
CCCCOC(=O)[C@H](C)NP(=O)(OC[C@H]1O[C@@H](n2cnc(N)nc2=O)C(F)(F)C1O)OC(C)c1ccc([N+](=O)[O-])cc1 (stereo partly drawn) [Compound 010] |  |  | 0.2 µg/mL (≈ 0.322 µM) | 2 µg/mL (≈ 3.22 µM) |  |  |  |  | 
CC(OP(=O)(N[C@@H](C)C(=O)OCC(C)(C)C)OC[C@H]1O[C@@H](n2cnc(N)nc2=O)C(F)(F)C1O)c1ccc([N+](=O)[O-])cc1 (stereo partly drawn) [Compound 011] |  |  | 0.2 µg/mL (≈ 0.315 µM) | 2 µg/mL (≈ 3.15 µM) |  |  |  |  | 
CC(OP(=O)(N[C@@H](C)C(=O)OC1CCCCC1)OC[C@H]1O[C@@H](n2cnc(N)nc2=O)C(F)(F)C1O)c1ccc([N+](=O)[O-])cc1 (stereo partly drawn) [Compound 012] | 0.5 µg/mL (≈ 0.773 µM) | > 10 µg/mL |  |  |  |  |  | 0.5 µg/mL (≈ 0.773 µM) | > 10 µg/mL
C[C@H](NP(=O)(OCc1ccc([N+](=O)[O-])s1)OC[C@H]1O[C@@H](n2cnc(N)nc2=O)C(F)(F)C1O)C(=O)OC1CCCCC1 (stereo partly drawn) [Compound 013] |  |  |  |  |  |  |  | 0.8 µg/mL (≈ 1.25 µM) | > 10 µg/mL
